The values that follow come from ChEMBL document CHEMBL3632516, “Influence of polar side chains modifications on the dual enkephalinase inhibitory activity and conformation of human opiorphin, a pain perception related peptide” (Bioorg Med Chem Lett, 2015).

As usually defined, the IC50 is the concentration that gives 50% inhibition.

For assay [1], the target named is Neprilysin (Homo sapiens, UniProt P08473). The assay can be described thus: Inhibition of human recombinant neutral endopeptidase using […] as substrate after 20 to 40 mins by fluorometry.
Sequence of Neprilysin (P08473 whole entry): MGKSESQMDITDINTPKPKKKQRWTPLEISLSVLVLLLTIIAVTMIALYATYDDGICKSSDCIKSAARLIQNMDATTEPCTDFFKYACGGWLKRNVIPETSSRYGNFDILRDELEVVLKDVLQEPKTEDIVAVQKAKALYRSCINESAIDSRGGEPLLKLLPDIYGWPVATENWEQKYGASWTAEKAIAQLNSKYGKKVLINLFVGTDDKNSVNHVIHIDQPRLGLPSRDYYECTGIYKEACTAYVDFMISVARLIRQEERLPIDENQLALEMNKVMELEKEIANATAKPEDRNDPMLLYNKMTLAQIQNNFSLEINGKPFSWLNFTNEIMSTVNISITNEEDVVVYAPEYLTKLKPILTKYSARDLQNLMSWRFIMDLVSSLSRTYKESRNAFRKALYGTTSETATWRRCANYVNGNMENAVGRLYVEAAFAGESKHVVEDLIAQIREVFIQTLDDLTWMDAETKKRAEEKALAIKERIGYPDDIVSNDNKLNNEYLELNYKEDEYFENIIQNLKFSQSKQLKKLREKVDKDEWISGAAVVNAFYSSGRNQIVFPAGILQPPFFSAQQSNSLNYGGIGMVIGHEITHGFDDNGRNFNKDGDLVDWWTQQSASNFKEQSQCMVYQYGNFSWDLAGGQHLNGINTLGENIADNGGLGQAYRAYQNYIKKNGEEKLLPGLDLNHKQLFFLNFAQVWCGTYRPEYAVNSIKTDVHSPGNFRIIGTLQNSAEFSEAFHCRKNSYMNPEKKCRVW
For assay [2], the target named is Aminopeptidase N (Homo sapiens, UniProt P15144). The assay can be described thus: Inhibition of human recombinant aminopeptidase N using […] as substrate after 20 to 40 mins by fluorometry.
Sequence of Aminopeptidase N (P15144 whole entry): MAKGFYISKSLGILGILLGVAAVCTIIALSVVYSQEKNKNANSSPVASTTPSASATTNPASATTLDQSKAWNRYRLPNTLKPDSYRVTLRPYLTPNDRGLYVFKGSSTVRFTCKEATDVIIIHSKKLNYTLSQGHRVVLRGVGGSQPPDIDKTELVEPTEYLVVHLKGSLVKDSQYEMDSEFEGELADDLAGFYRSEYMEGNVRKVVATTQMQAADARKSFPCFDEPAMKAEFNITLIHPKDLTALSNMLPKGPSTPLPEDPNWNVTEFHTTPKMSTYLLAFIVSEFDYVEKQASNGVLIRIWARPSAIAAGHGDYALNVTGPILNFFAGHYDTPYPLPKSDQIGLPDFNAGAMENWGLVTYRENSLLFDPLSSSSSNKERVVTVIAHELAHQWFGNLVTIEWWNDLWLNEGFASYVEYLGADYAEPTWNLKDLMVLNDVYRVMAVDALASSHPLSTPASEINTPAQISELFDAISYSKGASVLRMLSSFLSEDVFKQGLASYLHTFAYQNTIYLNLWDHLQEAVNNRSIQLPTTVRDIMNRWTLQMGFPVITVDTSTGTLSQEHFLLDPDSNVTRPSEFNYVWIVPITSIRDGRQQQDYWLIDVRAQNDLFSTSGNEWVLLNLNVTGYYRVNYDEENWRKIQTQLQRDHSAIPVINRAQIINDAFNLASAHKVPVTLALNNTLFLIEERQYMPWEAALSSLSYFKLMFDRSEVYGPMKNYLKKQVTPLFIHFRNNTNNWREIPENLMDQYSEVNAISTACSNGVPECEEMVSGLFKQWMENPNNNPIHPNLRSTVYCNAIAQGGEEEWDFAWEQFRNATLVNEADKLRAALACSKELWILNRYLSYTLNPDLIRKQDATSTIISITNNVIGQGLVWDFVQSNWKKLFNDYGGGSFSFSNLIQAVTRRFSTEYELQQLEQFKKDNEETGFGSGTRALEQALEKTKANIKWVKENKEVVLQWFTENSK

Residues, ends and D or L forms follow the SMILES beside them. *: point of attachment. X1 = CC(=O)N[C@@H]1[C@@H](O)[C@H](O)[C@@H](CO)O[C@@H]1* Where only a bound is given, the exact number is not on record here.

For H-QRFCR-OH, the IC50 in assay [1] is greater than 100 µM.

On to H-QRFTR-OH, for which the IC50 in assay [2] and in assay [1] was greater than 100 µM throughout.

In the case of H-QRFSK-OH, the IC50 in assay [2] was greater than 70 µM; in assay [1], 35 µM.

For H-QKFSR-OH, the results for the IC50 in assay [2] and in assay [1] were greater than 70 µM and 50 µM, respectively.

For the molecule `CC(=O)N[C@H]1[C@@H](O[C@H](C)[C@H](NC(=O)[C@H](Cc2ccccc2)NC(=O)[C@H](CCCNC(=N)N)NC(=O)[C@@H](N)CCC(N)=O)C(=O)N[C@@H](CCCNC(=N)N)C(=O)O)O[C@H](CO)[C@@H](O)[C@@H]1O` (H-QRFT(X1)R-OH), the IC50 in assay [2] and in assay [1] was greater than 100 µM throughout.
